Where two headings read alike, the source gives them in different places.
How the values were obtained:
[1] = approved oral, patch or i.v. administration; cited from earlier work
[2] = oral administration, cited from earlier work; for AUC1-12h cerebral spinal fluid (CSF)/plasma ratio: mean
[3] = tartrate salt form; cited from earlier work
[4] = Oral rivastigmine pharmacokinetics and estimated delivery to CSF (Exelon label); format: in vivo; conditions: for daily dose delivered to CSF: plasma volume 2750 mL, CSF volume 150 mL
Description: Drug coating and formulation development. The absolute bioavailability of oral rivastigmine is approximately 40%, and the AUC1-12h cerebral spinal fluid (CSF)/plasma ratio is about 40% (Novartis Exelon® Capsules and Oral Solution Prescribing Information). An estimated 0.87% of the rivastigmine oral dose is absorbed and distributed into the CSF. Thus, the daily CSF uptake of this drug is estimated to be between 26-105 μg. As a starting point for the formulation development, we will first target to formulate a matrix loaded with rivastigmine which will be released over 30 days in a near linear manner. Bilateral administration of the rivastigmine matrix would result in approximately 21-107 μg rivastigmine delivered to CSF/day, assuming a CSF bioavailability between 10-50%.
For oral administration, delivery, an absolute bioavailability of Rivastigmine is about 40% and a mean AUC (area under the curve) 1-12 hr CSF/Plasma is about 40% (Exelon Label). The daily doses delivered to CSF are 26 μg/day, 52 μg/day, 79 μg/day, and 105 μg/day for the oral doses, equating to 1.5 mg BID, 3 mg BID, 4.5 mg BID, and 6 mg BID, respectively. For this estimation, a plasma volume of 2750 mL and a CSF volume of 150 mL are used.

Row | Compound | Side effects [1] | AUC1-12h cerebral spinal fluid (CSF)/plasma ratio [2] | AUC1-12h cerebral spinal fluid (CSF)/plasma ratio ([2]; listed as rivastigmine) | absolute bioavailability [2] | absolute bioavailability ([2]; listed as rivastigmine) | water solubility [3] | daily dose delivered to CSF ([4]; oral 1.5 mg BID) [µg/day] | daily dose delivered to CSF ([4]; oral 3 mg BID) [µg/day] | daily dose delivered to CSF ([4]; oral 4.5 mg BID) [µg/day] | daily dose delivered to CSF ([4]; oral 6 mg BID) [µg/day] | fraction of oral dose absorbed and distributed into the CSF ([4]; oral dose, estimated) [%] | daily CSF uptake ([4]; oral dosing, estimated) [µg]
1 | CC12CC3CC(C)(C1)CC(N)(C3)C2 [Memantine] | Headache, constipation, |  |  |  |  |  |  |  |  |  |  | 
2 | CCN(C)C(=O)Oc1cccc([C@H](C)N(C)C)c1 [Rivastigmine] |  | about 40% | approximately 40% | about 40% | approximately 40% | highly water-soluble | 26 | 52 | 79 | 105 | 0.87 | 26 to 105
